Where two headings read alike, the source gives them in different places.
Legend:
[1] = target: WRN (BV08), human Werner helicase (Uniprot Q14191, amino acids 517-1235 with L1074F point mutation) (Homo sapiens (Human), UniProt Q14191, L1074F); test: WRN (BV08) ADP-Glo assay; format: biochemical; conditions: class symbols A-E, read-out: ADP-Glo_hWRN_IC50
[2] = system: p21 induction in HCT116 cells; test: p21 induction in HCT116 cells; format: cell-based; conditions: Homo sapiens, HCT-116, 24 h, read-out: P21_EC50
Method in brief: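 EC50 from non-linear curve fit of p21 immunofluorescence (800 nm), with GAPDH (700 nm) read alongside. DMSO and a reference WRN inhibitor served as low and high controls. Cells (2,000/well) got 11 compound concentrations in duplicate for 24 h at 37 °C.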

[3] = HCT116 cells, 24 h compound incubation

Chain of WRN (BV08), human Werner helicase (Uniprot Q14191, amino acids 517-1235 with L1074F point mutation) (Q14191 other isoform, or with tags, fused parts or gaps L1074F (already in the parent)): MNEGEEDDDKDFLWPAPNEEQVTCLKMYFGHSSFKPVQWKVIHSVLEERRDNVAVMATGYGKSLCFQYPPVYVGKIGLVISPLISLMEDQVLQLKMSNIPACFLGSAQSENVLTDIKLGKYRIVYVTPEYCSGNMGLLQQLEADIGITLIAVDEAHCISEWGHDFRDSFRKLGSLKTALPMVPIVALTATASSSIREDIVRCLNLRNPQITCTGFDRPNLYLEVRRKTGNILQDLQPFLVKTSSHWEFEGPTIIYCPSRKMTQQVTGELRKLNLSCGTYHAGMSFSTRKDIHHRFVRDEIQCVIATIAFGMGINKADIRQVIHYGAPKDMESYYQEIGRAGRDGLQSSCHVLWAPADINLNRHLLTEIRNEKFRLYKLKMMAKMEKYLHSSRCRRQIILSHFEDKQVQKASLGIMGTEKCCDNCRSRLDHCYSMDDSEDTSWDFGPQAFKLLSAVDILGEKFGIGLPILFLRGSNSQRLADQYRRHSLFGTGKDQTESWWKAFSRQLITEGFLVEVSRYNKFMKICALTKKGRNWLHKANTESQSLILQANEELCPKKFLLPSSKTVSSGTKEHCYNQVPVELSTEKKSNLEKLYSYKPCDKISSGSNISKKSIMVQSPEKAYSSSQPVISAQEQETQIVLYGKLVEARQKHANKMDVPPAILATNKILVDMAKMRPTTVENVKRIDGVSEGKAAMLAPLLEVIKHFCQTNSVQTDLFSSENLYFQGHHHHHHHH

SMILES | IC50 [1] [nM] | EC50 [2, 3] [nM] | EC50 [2] [nM]
CCc1c(N2CCN(C(=O)c3ncnc(C)c3O)CC2)c(=O)c2nc(OC)cnc2n1CC(=O)Nc1ccc(C(F)(F)F)cc1Cl [I-81, N-(2-chloro-4-(trifluoromethyl)phenyl)-2-(6-ethyl-7-(4-(5-hydroxy-6-methylpyrimidine-4-carbonyl)piperazin-1-yl)-2-methoxy-8-oxopyrido[2,3-b]pyrazin-5(8H)-yl)acetamide] | 50 to 100 | > 5000 | –
CCc1c(N2CCN(C(=O)c3ncnc(C)c3O)CC2)c(=O)c2nc(C(C)(C)O)cnc2n1CC(=O)Nc1ccc(C(F)(F)F)cc1Cl [I-84, N-(2-chloro-4-(trifluoromethyl)phenyl)-2-(6-ethyl-7-(4-(5-hydroxy-6-methylpyrimidine-4-carbonyl)piperazin-1-yl)-2-(2-hydroxypropan-2-yl)-8-oxopyrido[2,3-b]pyrazin-5(8H)-yl)acetamide] | 50 to 100 | > 5000 | –
CCc1c(N2CCN(C(=O)c3ncnc(C)c3O)CC2)c(=O)c2nc(N3CCNCC3)cnc2n1CC(=O)Nc1ccc(C(F)(F)F)cc1Cl [I-89, N-(2-chloro-4-(trifluoromethyl)phenyl)-2-(6-ethyl-7-(4-(5-hydroxy-6-methylpyrimidine-4-carbonyl)piperazin-1-yl)-8-oxo-2-(piperazin-1-yl)pyrido[2,3-b]pyrazin-5(8H)-yl)acetamide] | 100 to 500 | > 5000 | –
CCc1c(N2CCN(C(=O)c3ncnc(C)c3O)CC2)c(=O)c2nc(N3CCn4nccc43)cnc2n1CC(=O)Nc1ccc(C(F)(F)F)cc1Cl [I-91, N-(2-chloro-4-(trifluoromethyl)phenyl)-2-(2-(2,3-dihydro-1H-imidazo[1,2-b]pyrazol-1-yl)-6-ethyl-7-(4-(5-hydroxy-6-methylpyrimidine-4-carbonyl)piperazin-1-yl)-8-oxopyrido[2,3-b]pyrazin-5(8H)-yl)acetamide] | 5 to 50 | > 5000 | –
CCc1c(N2CCN(C(=O)c3ncnc(C)c3O)CC2)c(=O)c2nc(N(C)[C@H]3C[C@H](OC)C3)cnc2n1CC(=O)Nc1ccc(C(F)(F)F)cc1Cl [I-92, N-(2-chloro-4-(trifluoromethyl)phenyl)-2-(6-ethyl-7-(4-(5-hydroxy-6-methylpyrimidine-4-carbonyl)piperazin-1-yl)-2-(((1r,3r)-3-methoxycyclobutyl)(methyl)amino)-8-oxopyrido[2,3-b]pyrazin-5(8H)-yl)acetamide] | 5 to 50 | 500 to 2000 | –
CCc1c(N2CCN(C(=O)c3ncnc(C)c3O)CC2)c(=O)c2nc(N3CCC4CC43)cnc2n1CC(=O)Nc1ccc(C(F)(F)F)cc1Cl (stereo not shown) [I-93, 2-(2-(2-azabicyclo[3.1.0]hexan-2-yl)-6-ethyl-7-(4-(5-hydroxy-6-methylpyrimidine-4-carbonyl)piperazin-1-yl)-8-oxopyrido[2,3-b]pyrazin-5(8H)-yl)-N-(2-chloro-4-(trifluoromethyl)phenyl)acetamide] | 5 to 50 | 500 to 2000 | –
CCc1c(N2CCN(C(=O)c3ncnc(C)c3O)CC2)c(=O)c2nc(-c3cn[nH]c3)cnc2n1CC(=O)Nc1ccc(C(F)(F)F)cc1Cl [I-94, N-(2-chloro-4-(trifluoromethyl)phenyl)-2-(6-ethyl-7-(4-(5-hydroxy-6-methylpyrimidine-4-carbonyl)piperazin-1-yl)-8-oxo-2-(1H-pyrazol-4-yl)pyrido[2,3-b]pyrazin-5(8H)-yl)acetamide] | 5 to 50 | > 5000 | –
CCc1c(N2CCN(C(=O)c3ncnc(C)c3O)CC2)c(=O)c2nc3nc(C)sc3nc2n1CC(=O)Nc1ccc(C(F)(F)F)cc1Cl [I-95, N-(2-chloro-4-(trifluoromethyl)phenyl)-2-(6-ethyl-7-(4-(5-hydroxy-6-methylpyrimidine-4-carbonyl)piperazin-1-yl)-2-methyl-8-oxopyrido[2,3-b]thiazolo[4,5-e]pyrazin-5(8H)-yl)acetamide] | 5 to 50 | – | 500 to 2000
CCc1c(N2CCN(C(=O)c3ncnc(C)c3O)C[C@@H]2C)c(=O)c2nc(N(C)C)cnc2n1CC(=O)Nc1ccc(C(F)(F)F)cc1Cl [I-98, (S)—N-(2-chloro-4-(trifluoromethyl)phenyl)-2-(2-(dimethylamino)-6-ethyl-7-(4-(5-hydroxy-6-methylpyrimidine-4-carbonyl)-2-methylpiperazin-1-yl)-8-oxopyrido[2,3-b]pyrazin-5(8H)-yl)acetamide] | 5 to 50 | < 500 | –
CCc1c(N2CCN(C(=O)c3ncnc(C)c3O)C[C@H]2C)c(=O)c2nc(N(C)C)cnc2n1CC(=O)Nc1ccc(C(F)(F)F)cc1Cl [I-99, (R)—N-(2-chloro-4-(trifluoromethyl)phenyl)-2-(2-(dimethylamino)-6-ethyl-7-(4-(5-hydroxy-6-methylpyrimidine-4-carbonyl)-2-methylpiperazin-1-yl)-8-oxopyrido[2,3-b]pyrazin-5(8H)-yl)acetamide] | 5 to 50 | > 5000 | –
CCc1c(N2CCN(C(=O)c3ncnc(C)c3O)[C@H]3CC[C@@H]32)c(=O)c2nc(N(C)C)cnc2n1CC(=O)Nc1ccc(C(F)(F)F)cc1C [I-103, 2-(2-(dimethylamino)-6-ethyl-7-((1S,6S)-5-(5-hydroxy-6-methylpyrimidine-4-carbonyl)-2,5-diazabicyclo[4.2.0]octan-2-yl)-8-oxopyrido[2,3-b]pyrazin-5(8H)-yl)-N-(2-methyl-4-(trifluoromethyl)phenyl)acetamide] | 5 to 50 | < 500 | –
CCc1c(N2CCN(C(=O)c3ncnc(C)c3O)[C@H]3CC[C@@H]32)c(=O)c2nc(N(C)C)cnc2n1CC(=O)Nc1ccc(C(F)(F)F)cc1 [I-104, 2-(2-(dimethylamino)-6-ethyl-7-((1S,6S)-5-(5-hydroxy-6-methylpyrimidine-4-carbonyl)-2,5-diazabicyclo[4.2.0]octan-2-yl)-8-oxopyrido[2,3-b]pyrazin-5(8H)-yl)-N-(4-(trifluoromethyl)phenyl)acetamide] | 5 to 50 | < 500 | –

Further lines, with some results ahead:

IC50 [1] [nM] | EC50 [2, 3] [nM] | SMILES | EC50 [2] [nM]
5 to 50 | > 5000 | CCc1c(N2CCN(C(=O)c3ncnc(C)c3O)CC2)c(=O)c2nc(C3=CCOCC3)cnc2n1CC(=O)Nc1ccc(C(F)(F)F)cc1Cl [I-82, N-(2-chloro-4-(trifluoromethyl)phenyl)-2-(2-(3,6-dihydro-2H-pyran-4-yl)-6-ethyl-7-(4-(5-hydroxy-6-methylpyrimidine-4-carbonyl)piperazin-1-yl)-8-oxopyrido[2,3-b]pyrazin-5(8H)-yl)acetamide] | –
5 to 50 | > 5000 | CCc1c(N2CCN(C(=O)c3ncnc(C)c3O)CC2)c(=O)c2nc(C#N)cnc2n1CC(=O)Nc1ccc(C(F)(F)F)cc1Cl [I-83, N-(2-chloro-4-(trifluoromethyl)phenyl)-2-(2-cyano-6-ethyl-7-(4-(5-hydroxy-6-methylpyrimidine-4-carbonyl)piperazin-1-yl)-8-oxopyrido[2,3-b]pyrazin-5(8H)-yl)acetamide] | –
5 to 50 | 2000 to 5000 | CCc1c(N2CCN(C(=O)c3ncnc(C)c3O)CC2)c(=O)c2nc(Br)cnc2n1CC(=O)Nc1ccc(C(F)(F)F)cc1Cl [I-86, 2-(2-bromo-6-ethyl-7-(4-(5-hydroxy-6-methylpyrimidine-4-carbonyl)piperazin-1-yl)-8-oxopyrido[2,3-b]pyrazin-5(8H)-yl)-N-(2-chloro-4-(trifluoromethyl)phenyl)acetamide] | –
5 to 50 | 500 to 2000 | CCc1c(N2CCN(C(=O)c3ncnc(C)c3O)C(C)(C)C2)c(=O)c2nc(N(C)C)cnc2n1CC(=O)Nc1ccc(C(F)(F)F)cc1Cl [I-87, N-(2-chloro-4-(trifluoromethyl)phenyl)-2-(2-(dimethylamino)-6-ethyl-7-(4-(5-hydroxy-6-methylpyrimidine-4-carbonyl)-3,3-dimethylpiperazin-1-yl)-8-oxopyrido[2,3-b]pyrazin-5(8H)-yl)acetamide] | –
5 to 50 | > 5000 | CCc1c(N2CCN(C(=O)c3ncnc(C)c3O)CC2)c(=O)c2nc(N3CC[C@H](O)C3)cnc2n1CC(=O)Nc1ccc(C(F)(F)F)cc1Cl [I-88, (S)-N-(2-chloro-4-(trifluoromethyl)phenyl)-2-(6-ethyl-7-(4-(5-hydroxy-6-methylpyrimidine-4-carbonyl)piperazin-1-yl)-2-(3-hydroxypyrrolidin-1-yl)-8-oxopyrido[2,3-b]pyrazin-5(8H)-yl)acetamide] | –
5 to 50 | > 5000 | CCc1c(N2CCN(C(=O)c3ncnc(C)c3O)CC2)c(=O)c2nc(C3=CCOC3)cnc2n1CC(=O)Nc1ccc(C(F)(F)F)cc1Cl [I-90, N-(2-chloro-4-(trifluoromethyl)phenyl)-2-(2-(2,5-dihydrofuran-3-yl)-6-ethyl-7-(4-(5-hydroxy-6-methylpyrimidine-4-carbonyl)piperazin-1-yl)-8-oxopyrido[2,3-b]pyrazin-5(8H)-yl)acetamide] | –
≤ 5 | < 500 | CCc1c(N2CCN(C(=O)c3ncnc(C)c3O)[C@H]3CC[C@@H]32)c(=O)c2nc(C3CC3)cnc2n1CC(=O)Nc1ccc(C(F)(F)F)cc1Cl [I-100, N-(2-chloro-4-(trifluoromethyl)phenyl)-2-(2-cyclopropyl-6-ethyl-7-((1S,6S)-5-(5-hydroxy-6-methylpyrimidine-4-carbonyl)-2,5-diazabicyclo[4.2.0]octan-2-yl)-8-oxopyrido[2,3-b]pyrazin-5(8H)-yl)acetamide] | –
≤ 5 | < 500 | CCc1c(N2CCN(C(=O)c3ncnc(C)c3O)[C@H]3CC[C@@H]32)c(=O)c2nc(OC3CC3)cnc2n1CC(=O)Nc1ccc(C(F)(F)F)cc1Cl [I-102, N-(2-chloro-4-(trifluoromethyl)phenyl)-2-(2-cyclopropoxy-6-ethyl-7-((1S,6S)-5-(5-hydroxy-6-methylpyrimidine-4-carbonyl)-2,5-diazabicyclo[4.2.0]octan-2-yl)-8-oxopyrido[2,3-b]pyrazin-5(8H)-yl)acetamide] | –
